Data taken from patent US20150258129A1, “Method for Increasing the Activity of Lysosomal Enzymes” (Mount Sinai School of Medicine of New York University, priority 1998, published 2015).
Where a chain is given by its changes, count along the chain named. pIC50, pKi: −log10 of the molar value.

How the values were obtained:
[1] = system: lysosomal acid β-galactosidase (β-Gal); test: Intracellular enhancement of β-Gal activity in GM1-gangliosidosis fibroblasts; assay type: cell-based, human; conditions: for β-Gal enhancement effect in fibroblasts of infant type disease (BGF-1 and BGF-6): DGJ 500 μM, 4-epi-isofagomine 50 μM; for intracellular β-Gal activity in GM1-gangliosidosis fibroblasts (summary): concentration ranges of 50-500 μM
Protocol: In FIG. 7A, GM1-gangliosidosis fibroblasts were cultured with DGJ (4) at 500 μM for 5 days before being collected for enzyme assay. In FIG. 7B, GM1-gangliosidosis fibroblasts were cultured with 4-epi-isofagomine (21) at 50 μM for 5 days before being collected for enzyme assay. Strains BGF-1 and BGF-6 were diagnosed as infantile type, and all others were juvenile or adult types.
(§1) The Epstein-Barr virus-transformed lymphoblast lines from a normal adult and a Fabry patient with R301Q mutation in α-Gal A (38) were cultured in RPMI-1640 medium (Nissui Pharmaceutical Co., Tokyo, Japan) supplemented with 10% fetal calf serum (FCS) at 37° C. under 5% CO2. Human fibroblasts from Gaucher and GM1-gangliosidosis patients were cultured in McCoy 5A medium supplemented with 10% FCS at 37° C. under 5% CO2.
(§2) Cells were cultured in the presence or absence of inhibitor for 5 days. After being washed twice with PBS, the cells were harvested and homogenized in 200 μl of H2O, and 10 μl of the supernatant obtained by centrifugation at 10,000 g was incubated at 37° C. with 50 μl of the substrate solution of 1 mM 4-methylumbelliferyl β-D-galactoside (4-MU-β-Gal) in 0.1 M citrate buffer (pH 4.5) for enzyme assay. One unit of intracellular enzyme activity was defined as one nmol of 4-methylumbelliferone released per hour at 37° C.

[2] = molecular target: T1, human lysosomal α-Gal A (Homo sapiens, UniProt P06280); test: In vitro inhibition of α-Gal A (recombinant, expressed in Sf-9 insect cells); assay type: biochemical
T1 construct: made in house; host or cells: Sf-9 insect cells, recombinant baculovirus
T1 sequence (P06280 32-429): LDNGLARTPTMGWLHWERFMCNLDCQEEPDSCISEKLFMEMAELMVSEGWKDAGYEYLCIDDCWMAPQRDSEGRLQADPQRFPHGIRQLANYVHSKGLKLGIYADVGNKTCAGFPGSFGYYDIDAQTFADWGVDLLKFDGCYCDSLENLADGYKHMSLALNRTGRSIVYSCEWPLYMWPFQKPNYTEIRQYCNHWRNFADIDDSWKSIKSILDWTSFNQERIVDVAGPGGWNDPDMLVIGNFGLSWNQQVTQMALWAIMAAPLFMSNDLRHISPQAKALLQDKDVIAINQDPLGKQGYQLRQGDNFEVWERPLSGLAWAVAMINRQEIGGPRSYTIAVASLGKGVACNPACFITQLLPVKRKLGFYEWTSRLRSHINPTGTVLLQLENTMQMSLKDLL

[3] = system: globotriaosylceramide metabolism; test: Intracellular globotriaosylceramide metabolism with inhibitor in the medium; assay type: cell-based; conditions: 20 μM in the medium
[4] = molecular target: coffee bean α-galactosidase (Coffea arabica, UniProt Q42656); conditions: cited from earlier work
[5] = molecular target: T2, mutant α-Gal A (R301Q) (Homo sapiens, UniProt P06280, R301Q); conditions: neutral pH; cited from earlier work
T2 sequence (P06280 32-429 R301Q): T1 sequence (P06280 32-429) with R270Q

[6] = molecular target: T3, mutant (R301Q) α-Gal A (Homo sapiens, UniProt P06280, R301Q); conditions: oral administration, mice overexpressing mutant (R301Q) α-Gal A; cited from earlier work
T3 construct: host or cells: transgenic mice (organs)
T3 sequence (P06280 32-429 R301Q): T1 sequence (P06280 32-429) with R270Q

[7] = molecular target: T2, mutant α-Gal A (R301Q); test: Intracellular enhancement of α-Gal A activity in Fabry lymphoblasts; assay type: cell-based; design: endogenous in cells; host or cells: Epstein-Barr virus-transformed lymphoblasts from a Fabry patient (R301Q); conditions: for increase of α-Gal A enzyme activity in R301Q lymphoblasts: inhibitor at 100 μM; for intracellular α-Gal A activity in Fabry lymphoblasts (summary): concentration ranges of 10-1000 μM; for α-Gal A activity in R301Q lymphoblasts with increasing concentration of calystegine compound: range 100-1000 μM, FIG. 6
Protocol: FIG. 4B depicts results in which each inhibitor was added to the culture medium of R301Q lymphoblasts at a concentration of 100 μM. Cells were subsequently incubated for 4 days. After being washed twice with phosphate-buffered saline, the intracellular enzyme activity was determined with 4-MU-α-Gal as the substrate.
R301Q lymphoblasts were cultured with DGJ (4) ([…]), α-allo-HNJ (9) (▪), α-galacto-HNJ (10) (▴), or β-1-C-butyl-DGJ (16) (♦) at 1-1000 μM for 4 days before being collected for enzyme assay.
In FIG. 6B, R301Q lymphoblasts were cultured with calystegine B2 (18) and the results are shown therein. In FIG. 6C, R301Q lymphoblasts were cultured with N-methyl calystegine A3 (19) and the results are shown therein. In FIG. 6D R301Q lymphoblasts were cultured with N-methyl calystegine B2 (20) at 100-1000 μM for 4 days before being collected for enzyme assay and the results are shown therein.
as §1
as §2, with “for 4” for “for 5”, “with phosphate-buffered saline (PBS),” for “with PBS,”, “solution composed by 6” for “solution of 1”, “4-methylumbelliferyl α-D-galactoside (4-MU-α-Gal) and 90 mM N-acetylgalactosamine” for “4-methylumbelliferyl β-D-galactoside (4-MU-β-Gal)”

[8] = molecular target: T2, mutant α-Gal A (R301Q); design: endogenous in cells; host or cells: Epstein-Barr virus-transformed lymphoblasts from a Fabry patient (R301Q); conditions: R301Q or Q279E mutations; cited from earlier work
[9] = molecular target: T4, glucocerebrosidase (β-Glu), L444P/L444P (Homo sapiens, UniProt P04062, L483P); test: Intracellular enhancement of β-Glu activity in Gaucher fibroblasts (L444P/L444P); assay type: cell-based; conditions: 10 μM, 5 days
T4 construct: endogenous in cells; host or cells: human Gaucher patient fibroblasts, genotype L444P/L444P
T4 sequence (P04062 40-536 L483P): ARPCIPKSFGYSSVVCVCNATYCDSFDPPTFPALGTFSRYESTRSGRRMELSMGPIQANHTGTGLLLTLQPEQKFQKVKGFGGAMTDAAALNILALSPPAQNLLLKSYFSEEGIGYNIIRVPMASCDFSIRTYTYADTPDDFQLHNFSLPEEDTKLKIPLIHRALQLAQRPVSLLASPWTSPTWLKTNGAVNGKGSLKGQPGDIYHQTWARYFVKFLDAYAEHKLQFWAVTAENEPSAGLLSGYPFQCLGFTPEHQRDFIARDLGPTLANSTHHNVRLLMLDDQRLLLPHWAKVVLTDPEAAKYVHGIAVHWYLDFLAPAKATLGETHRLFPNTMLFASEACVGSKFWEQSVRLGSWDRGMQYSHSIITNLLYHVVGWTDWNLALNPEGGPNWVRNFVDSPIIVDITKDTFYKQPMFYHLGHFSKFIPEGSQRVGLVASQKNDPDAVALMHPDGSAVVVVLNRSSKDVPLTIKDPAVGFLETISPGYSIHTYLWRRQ

[10] = molecular target: human β-glucocerebrosidase (Homo sapiens, UniProt P04062); test: In vitro inhibition of human β-glucocerebrosidase; assay type: biochemical; conditions: 0.1M citrate buffer (pH 5.2), 4-MU-β-Glu as substrate
[11] = molecular target: T5, glucocerebrosidase (β-Glu), N370S/N370S (Homo sapiens, UniProt P04062, N409S); test: Intracellular enhancement of β-Glu activity in Gaucher fibroblasts (N370S/N370S); assay type: cell-based; conditions: concentration ranges of 0.05-100 μM
T5 construct: endogenous in cells; host or cells: human Gaucher patient fibroblasts, genotype N370S/N370S
T5 sequence (P04062 40-536 N409S): T4 sequence (P04062 40-536 L483P) with N370S, P444L

human β-glucocerebrosidase, sequence (P04062 40-536): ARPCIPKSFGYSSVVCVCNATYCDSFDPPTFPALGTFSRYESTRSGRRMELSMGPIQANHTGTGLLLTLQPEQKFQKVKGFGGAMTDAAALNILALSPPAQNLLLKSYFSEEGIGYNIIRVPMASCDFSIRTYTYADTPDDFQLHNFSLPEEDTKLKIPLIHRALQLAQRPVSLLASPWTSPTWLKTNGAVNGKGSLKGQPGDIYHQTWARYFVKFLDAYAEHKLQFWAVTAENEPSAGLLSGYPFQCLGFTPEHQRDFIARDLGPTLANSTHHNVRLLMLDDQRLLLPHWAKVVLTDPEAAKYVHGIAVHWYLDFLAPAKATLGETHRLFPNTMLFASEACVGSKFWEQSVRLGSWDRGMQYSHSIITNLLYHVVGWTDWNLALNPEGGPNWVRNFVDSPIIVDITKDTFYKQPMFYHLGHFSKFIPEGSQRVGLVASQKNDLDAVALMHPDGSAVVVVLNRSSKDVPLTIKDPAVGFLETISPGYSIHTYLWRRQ
coffee bean α-galactosidase, sequence (Q42656 16-378): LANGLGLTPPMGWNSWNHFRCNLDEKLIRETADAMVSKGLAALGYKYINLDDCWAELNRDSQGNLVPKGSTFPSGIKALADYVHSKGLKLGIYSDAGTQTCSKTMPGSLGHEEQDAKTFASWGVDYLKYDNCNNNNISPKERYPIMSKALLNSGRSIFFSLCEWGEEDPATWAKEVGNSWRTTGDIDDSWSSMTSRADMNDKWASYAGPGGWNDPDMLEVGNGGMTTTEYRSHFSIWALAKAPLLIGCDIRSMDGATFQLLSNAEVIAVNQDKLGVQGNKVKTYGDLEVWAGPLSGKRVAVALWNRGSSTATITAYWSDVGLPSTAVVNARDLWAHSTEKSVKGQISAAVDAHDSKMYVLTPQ

OC[C@H]1CNC[C@@H](O)[C@H]1O [compound 21, 4-epi-isofagomine]
β-Gal enhancement effect in fibroblasts of infant type disease (BGF-1 and BGF-6) ([1]; 5 days): not efficient | intracellular β-Gal activity in GM1-gangliosidosis fibroblasts (summary) [1]: effectively enhance | intracellular β-Gal activity elevated to, % of normal ([1]; fibroblasts of juvenile and adult types, 5 days, FIG. 7B (50 μM)): 9-53 % of normal

OC[C@H]1NC[C@H](O)[C@@H](O)[C@H]1O [compound 4, 1-Deoxygalactonojirimycin]
inhibition mode toward α-Gal A (Lineweaver-Burk plots) [2]: competitive inhibitors | increase of residual β-Gal activity in BGF-7 fibroblasts ([1]; 500 μM, 5 days, FIG. 7A): 27 fold | β-Gal enhancement effect in fibroblasts of infant type disease (BGF-1 and BGF-6) ([1]; 5 days): not efficient | intracellular β-Gal activity in GM1-gangliosidosis fibroblasts (summary) [1]: effectively enhance | intracellular inhibition of globotriaosylceramide metabolism [3]: did not cause intracellular inhibition | inhibition of coffee bean α-galactosidase (in words) [4]: extremely powerful inhibitor | in vitro stability of mutant α-Gal A (R301Q) [5]: effectively increased in vitro stability | enzyme activity in major organs of transgenic mice [6]: substantially elevated the enzyme activity | α-Gal A enzyme activity in R301Q lymphoblasts reached, % of normal ([7]; 100 μM, 4 days): 49 % of normal | increase of α-Gal A enzyme activity in R301Q lymphoblasts ([7]; 4 days): about 14 fold | α-Gal A activity in R301Q lymphoblasts with increasing inhibitor concentration ([7]; range 1-100 μM, FIG. 5): elevated with increasing inhibitor concentration | mutant enzyme activity in lymphoblasts from Fabry patients [8]: enhanced the mutant enzyme activity

O[C@@H]1C[C@]2(O)N[C@H]1C[C@@H](O)[C@@H]2O [calystegine B1]
increase of residual β-Glu activity in Gaucher fibroblasts [9]: 76%

O[C@@H]1[C@@H](O)[C@H](O)[C@]2(O)C[C@@H](O)[C@H]1N2 [calystegine C1]
increase of residual β-Glu activity in Gaucher fibroblasts [9]: 136%

O[C@@H]1C[C@H]2CC[C@](O)(N2)[C@H]1O [compound 17, Calystegine A3]
pIC50 [10]: 5.51 | intracellular β-Glu activity in Gaucher fibroblasts (summary) [11]: effectively enhance | increase of residual β-Glu activity in Gaucher fibroblasts [9]: 126% | intracellular α-Gal A activity in Fabry lymphoblasts (summary) [7]: effectively increase | α-Gal A activity in R301Q lymphoblasts with increasing concentration of calystegine compound ([7]; 4 days): elevated with increasing concentration

CCCCC1NC(CO)C(O)C(O)C1O (stereo not drawn) [compound 16, β-1-C-Butyl-deoxygalactonojirimycin]
inhibition mode toward α-Gal A (Lineweaver-Burk plots) [2]: competitive inhibitors | pKi ([2]; p-nitrophenyl-α-D-galactopyranoside as substrate, read-out: Ki for α-Gal A, from the slope of Lineweaver-Burk plots): 4.80 | pIC50 ([2]; read-out: IC30 and (Ki)*: IC50 values (inhibitor concentration giving 50% inhibition) for α-Gal A, p-nitrophenyl-α-D-galactopyranoside as substrate, pH 4.5): 4.62 | pIC50 [4]: 6.15 | intracellular α-Gal A activity in Fabry lymphoblasts (summary) [7]: effectively increase | increase of α-Gal A enzyme activity in R301Q lymphoblasts ([7]; 4 days): 2.3 fold | enhancement of α-Gal A activity in R301Q lymphoblasts ([7]; inhibitor at 1000 μM, 4 days): 6.3 fold

O[C@@H]1[C@@H](O)[C@H](O)[C@]2(O)CC[C@H]1N2 [compound 18, calystegine B2]
pIC50 [10]: 6.00 | intracellular β-Glu activity in Gaucher fibroblasts (summary) [11]: effectively enhance | increase of residual β-Glu activity in Gaucher fibroblasts [9]: 230% | intracellular α-Gal A activity in Fabry lymphoblasts (summary) [7]: effectively increase | α-Gal A activity in R301Q lymphoblasts with increasing concentration of calystegine compound ([7]; 4 days): elevated with increasing concentration

CN1C2CCC1(O)C(O)C(O)C2O (stereo not shown) [compound 20, N-methyl calystegine B2]
pIC50 [10]: 3.49 | intracellular α-Gal A activity in Fabry lymphoblasts (summary) [7]: effectively increase | α-Gal A activity in R301Q lymphoblasts with increasing concentration of calystegine compound ([7]; 4 days): elevated with increasing concentration
